# Laboratory results reported in patent US20240226072A1 (Stichting Het Nederlands Kanker Instituut, priority 2022, published 2024).
# Key:
# [1] = Plasma pharmacokinetics and tissue distribution 2 h after oral cabazitaxel 10 mg/kg with vehicle or 25 mg/kg ritonavir in wild-type, Oatp1a/1b−/−, Oatp1a/1b/2b1−/−, OATP1B1- and OATP1B3-transgenic mice; assay type: in vivo; details: ritonavir 25 mg/kg oral, cabazitaxel 10 mg/kg oral; for CLiver / Cbrain / Pbrain, brain accumulation per h / SIC (% of dose), small intestinal content: 2 h; for AUC(0-t) / Cmax / Tmax: male, FVB, mouse, plasma, po, 25 mg/kg; for AUC(0-t): AUC0-[…]
# Method: All animals were fasted 2 to 3 hours prior to the start of the experiment to minimize variation in absorption after oral administration. […] Subsequently, cardiac puncture was performed with a heparinized needle and syringe collecting a final blood sample. […] All samples were stored at −30° C. until analysis.
# Differences were considered statistically significant when P<0.05. All data are presented as geometric mean±SD.
# [2] = input of human simulation, cited from earlier work
# in vivo [3] = details: male, mouse, po; for AUC(0-t): AUC0-24 h
# Method: (§1) The Jevtana (10 mg/mL) solution contains 0.26 mg/mL polysorbate 80 and 15% (w/v) ethanol, and is adjusted to pH 2-6 with citric acid. […] The stock solution was further diluted 5-fold with water to reach a 2.5 mg/mL dosing solution for oral administration. The vehicle solution only consists of polysorbate 80, ethanol and water (1:1:8, v/v/v). […] All dosing solutions were prepared freshly on the day of the experiment.
# (§2) At the termination time point of 24 hours, mice were anesthetized using an isoflurane evaporator with 3% isoflurane with 0.8 L/min air and 0.3 L/min oxygen. A final blood sample was taken using cardiac puncture, using Eppendorf tubes previously prepared with heparin as an anticoagulant. Subsequently, the anesthetized mice were sacrificed by cervical dislocation and the tissues of interest were collected. Brain, liver, spleen, kidney, small intestine, and testis were collected. The small intestinal content (SIC) was separately collected by removing this from the small intestinal tissue, which was subsequently rinsed with saline to remove possibly fecal residue. The blood samples were centrifuged at 9,000×g for 6 minutes at 4° C., and the plasma fraction was isolated and stored at −30° C. until analysis. Brain, liver, spleen, kidney, small intestinal tissue, SIC, and testis were homogenized in a FastPrep-24™ 5G homogenizer (M. P. Biomedicals, Santa Ana, CA, USA) for 1 min with 1, 3, 1, 2, 3, 2, and 1 mL of 2% (w/v) BSA in Milli-Q water, respectively. Until analysis of the samples, they were all stored at −30° C.
# (§3) Pharmacokinetic parameters were estimated by non-compartmental analysis using the software package of PK solutions 2.0.2 (SUMMIT, Research Service). The area under the curve (AUC) of the plasma-concentration time curve for all the compounds was calculated using the linear trapezoidal rule without extrapolating to infinity. The peak plasma concentration (Cmax) and the time to reach peak plasma concentration (Tmax) were obtained directly from the individual raw data. For the statistical analysis and the graphs GraphPad Prism 9 (GraphPad Software Inc., La Jolla, CA, USA) was used. The statistics for the comparison of multiple groups were calculated with the one-way analysis of variance (ANOVA), whereas Sidak's post hoc correction was performed. Log-transformation before statistical analysis was applied, when variances within the groups were not homogeneously distributed. Differences were considered statistically significant when P<0.05. All data are presented as geometric mean±SD.
# in vivo [4] = details: male, mouse, po, 25 mg/kg, Tmax
# Method: as §1, §2, §3
# The last parameter is in many cases the most useful, as it takes the overall exposure into account.
compound,measurement,setting,value
CC(C)c1nc(CN(C)C(=O)N[C@H](C(=O)N[C@@H](Cc2ccccc2)C[C@H](O)[C@H](Cc2ccccc2)NC(=O)OCc2cncs2)C(C)C)cs1 [ritonavir],CLiver,[1]; OATP1B1-transgenic mice,42478 ± 7201 pmol/g
same,Cbrain,[1]; OATP1B1-transgenic mice,277 ± 96.0 pmol/g
same,"Pbrain, brain accumulation per h",[1]; OATP1B1-transgenic mice,0.012 ± 0.002 h⁻¹
same,"SIC (% of dose), small intestinal content",[1]; OATP1B1-transgenic mice,5.81 ± 3.14 % of dose
same,CLiver,[1]; OATP1B3-transgenic mice,45512 ± 4650 pmol/g
same,Cbrain,[1]; OATP1B3-transgenic mice,249 ± 47.9 pmol/g
same,"Pbrain, brain accumulation per h",[1]; OATP1B3-transgenic mice,0.013 ± 0.005 h⁻¹
same,"SIC (% of dose), small intestinal content",[1]; OATP1B3-transgenic mice,4.44 ± 2.65 % of dose
same,CLiver,[1]; Oatp1a/1b/2b1−/− mice,38153 ± 8561 pmol/g
same,Cbrain,[1]; Oatp1a/1b/2b1−/− mice,236 ± 82.5 pmol/g
same,"Pbrain, brain accumulation per h",[1]; Oatp1a/1b/2b1−/− mice,0.014 ± 0.003 h⁻¹
same,"SIC (% of dose), small intestinal content",[1]; Oatp1a/1b/2b1−/− mice,6.03 ± 3.23 % of dose
same,CLiver,[1]; Oatp1a/1b−/− mice,43800 ± 5797 pmol/g
same,Cbrain,[1]; Oatp1a/1b−/− mice,306 ± 45.5 pmol/g
same,"Pbrain, brain accumulation per h",[1]; Oatp1a/1b−/− mice,0.014 ± 0.003 h⁻¹
same,"SIC (% of dose), small intestinal content",[1]; Oatp1a/1b−/− mice,3.84 ± 2.08 % of dose
same,AUC(0-t),[1]; OATP1B1-transgenic mice,14.3 ± 2.02 µM·h
same,AUC(0-t),[1]; OATP1B3-transgenic mice,14.8 ± 1.22 µM·h
same,AUC(0-t),[1]; Oatp1a/1b/2b1−/− mice,13.1 ± 2.14 µM·h
same,AUC(0-t),[1]; Oatp1a/1b−/− mice,16.9 ± 3.95 µM·h
same,AUC(0-t),[1]; wild-type mice,5.96 ± 1.15 µM·h
same,Cmax,[1]; OATP1B1-transgenic mice,8.35 ± 1.3 µM
same,Tmax,[1]; OATP1B1-transgenic mice,1.17 h
same,Cmax,[1]; OATP1B3-transgenic mice,8.67 ± 1.15 µM
same,Tmax,[1]; OATP1B3-transgenic mice,1.33 h
same,Cmax,[1]; Oatp1a/1b/2b1−/− mice,7.74 ± 1.12 µM
same,Tmax,[1]; Oatp1a/1b/2b1−/− mice,1 h
same,Cmax,[1]; Oatp1a/1b−/− mice,11.2 ± 5.21 µM
same,Tmax,[1]; Oatp1a/1b−/− mice,1.21 h
same,Cmax,[1]; wild-type mice,3.62 ± 0.765 µM
same,Tmax,[1]; wild-type mice,0.667 h
same,CLiver,[1]; wild-type mice,44998 ± 6028 pmol/g
same,"Pbrain, brain accumulation per h",[1]; wild-type mice,0.010 ± 0.002 h⁻¹
same,"SIC (% of dose), small intestinal content",[1]; wild-type mice,3.90 ± 2.22 % of dose
same,IIV CL,[2],46.7 CV%
same,CL,[2]; source (18),7.72 L/h
same,IIV CV,[2]; source (18),12.8 CV%
same,IIV F,[2]; source (18),52.2 CV%
same,IIV Vc,[2]; source (18),93.5 CV%
same,IOV CV,[2]; source (18),22.2 CV%
same,IOV MAT,[2]; source (18),32.1 CV%
same,MAT,[2]; source (18),8.45 h
same,Q,[2]; source (18),3.99 L/h
same,V,[2]; source (18),23 L
same,Vp,[2]; source (18),17.9 L
same,AUC(0-t),"in vivo [3]; Cyp3aXAV (human CYP3A in Cyp3a−/−, FVB background), 1 mg/kg",0.000447 ± 0.000766 µM·h
same,AUC(0-t),"in vivo [3]; FVB (wild-type), 1 mg/kg",0.00591 ± 0.0018 µM·h
same,Cmax,"in vivo [3]; FVB, Cyp3aXAV, 1 mg/kg",0.000532 ± 0.00108 µM
same,Tmax,"in vivo [3]; FVB, Cyp3aXAV, 1 mg/kg",1.38 ± 3.25 h
same,AUC(0-t),"in vivo [3]; FVB, Cyp3aXAV, 10 mg/kg",0.075 ± 0.0188 µM·h
same,Cmax,"in vivo [3]; FVB, Cyp3aXAV, 10 mg/kg",0.0829 ± 0.0159 µM
same,Tmax,"in vivo [3]; FVB, Cyp3aXAV, 10 mg/kg",0.25 h
same,Cmax,"in vivo [3]; FVB, wild-type, 1 mg/kg",0.00576 ± 0.00138 µM
same,Tmax,"in vivo [3]; FVB, wild-type, 1 mg/kg",0.33 ± 0.13 h
same,AUC(0-t),"in vivo [3]; FVB, wild-type, 10 mg/kg",1.44 ± 0.529 µM·h
same,Cmax,"in vivo [3]; FVB, wild-type, 10 mg/kg",0.749 ± 0.322 µM
same,Tmax,"in vivo [3]; FVB, wild-type, 10 mg/kg",0.92 ± 0.2 h
same,Tmax,in vivo [4]; Cyp3a−/− (FVB background),2.33 ± 0.82 h
same,Tmax,in vivo [4]; wild-type FVB,2 h
